Tests used:
[1] = system: acetic acid-induced writhes (abdominal constriction); assay: Writhing test (0.6% acetic acid); type: in vivo, ICR mice; details: mouse, oral, 0.5 h; read-out: Writ htest: ED50
Method: To examine the pain relief effect of the sulfamate derivative compounds, a writhing test was conducted in general pain animal model referring to Fischer, L. G. et al. (2008).
(§1) ICR mice (male, 24-28 g; Orient Bio, Korea) were habituated before test in test room for 1 hour. Animals were fasted 2 hr, before administration of compounds. Compounds was orally administered at the close of 20 mg/kg, 10 ul/g, bw (n=3˜5/group). All compounds were dissolved in a vehicle of 30% (v/v) PEG 400 or 20% (v/v) Tween 80. The control group was treated the vehicle without compounds.
[…] Animals were habituated in the cage for 5 min. 5 min after habituation, the number of writhes (abdominal constriction) for 15 min was counted referring to Korzeniewska-Rybicka, I. et al. (1998) and compared with that of a control.

[2] = system: tail-flick withdrawal latency; assay: Tail-flick test; type: in vivo, ICR mice; details: mouse, oral
Method: To examine the pain relief effect of the sulfamate compounds, a tail-flick test was conducted in general pain animal model referring to Current Protocols in Neuroscience; Behavioral Neuroscience Unit 8.9.
as §1, with “(male, 25-30” for “(male, 24-28”, “2 hr” for “2 hr,”, “compounds. Each of Compound” for “compounds. Compounds”, “of 150” for “of 20”, “bw (n=7˜10/group).” for “bw (n=3˜5/group).”
After the administration of compounds, the mice tail were put on a tail-flick analgesia meter. To avoid tissue damage, maximal exposure time to pain stimuli was restricted to 15 s. The withdrawal latency was measured as the time to the point when each mouse response to the stimulus. The relative values compared to the control (% control) were calculated.
The relative values compared to the sham were calculated and shown in Table 12, which show effect of the compound of examples on tail-flick test in […].

[3] = system: hot plate withdrawal latency; assay: Hot-plate test; type: in vivo, ICR mice; details: 200 mg/kg, mouse, oral
Method: To examine the pain relief effect of the sulfamate derivative compounds, a hot-plate test was conducted in general pain animal model referring to Current Protocols in Neuroscience; Behavioral Neuroscience Unit 8.9.
as §1, with “30-35 g:” for “24-28 g;”, “hr” for “hr,”, “Compounds was orally administered at the close of 20 mg/kg, 10 ul/g, bw (n=3˜5/group).” left out
[…] (Hu, X. et al, 2008), and then, measured as the withdrawal latency (cut-off time: 30 sec) time until the point when each mouse was taking off a paw from the plate, shaking, licking a paw or hind leg, or jumping from the plate.

CFA-induced pain model = assay: Antiallodynic activity on Complete Freund's Adjuvant (CFA)-induced inflammatory pain model (von Frey); type: in vivo, Sprague-Dawley rats; details: ip; rat, intraperitoneal, von Frey, 0.5 h

SMILES: CC1(C)O[C@@H](COS(N)(=O)=O)[C@H](c2ccccc2Cl)O1 [Example 2, ((4S,5S)-5-(2-chlorophenyl)-2,2-dimethyl-1,3-dioxolan-4-yl)methyl sulfamate]
- ED50 [1]: 28.4 mg/kg
- tail-flick test: dose [2]: > 200 mg/kg
- Hot plate test: effect (%) at the concentration administered [3]: ^#200 (123.6%)
- ED50 (CFA-induced pain model): 5.9 mg/kg

From patent publication US9834535B2, “Sulfamate derivative compounds for use in treating or alleviating pain” (Bio-Pharm Solutions Co., Ltd., priority 2013, dated 2017)
